The text below walks through data of patent US20230181751A1, “FORMULATION OF PURE DIMETHOXY CURCUMIN-HUMAN SERUM ALBUMIN AND A PROCESS FOR THE PREPARATION THEREOF” (SREE CHITRA TIRUNAL INSTITUTE FOR MEDICAL SCIENCES AND …, priority 2020, published 2023).

The nature of one data set: solubility. The data set is classed as physicochemical. To be noted: water, before conjugation.
A short description of data set [1]: storage stability of DMCHSA solution (UV and FTIR spectra). Format: physicochemical. How it is done:
The liquid stability of the product was analysed at 24 h interval for 48 h or 72 h. The UV spectra recorded at different storage period are shown
FTIR spectra are shown to substantiate the chemical degradation after 48 h of storage of DMCHSA solution.
The lyophilized samples were used for respective periods as prepared for liquid stability, were lyophilized and recorded FTIR spectrum.
Thus, liquid stability of DMCHSA stored for […] is evident.

The subject of data set [2] is Fibroblast cell line (L929). In words: MTT cytotoxicity assay, DMCHSA versus free DMC. The data set is classed as cell-based, mouse. The settings on record: similar molar concentrations, 24 h-48 h. Here is the method:
Cancer cell lines (A549,MCF-7), Fibroblast cell line (L929), and primary cells (ECs and CCs) were cultured in 96-well plates containing 100 µl medium, kept this plate in CO2 incubator (5% CO2) at 37° C. for 24 h. DMCHSA solution was freshly prepared by dissolving the lyophilized conjugate in DMEM F12 medium and added (0.05 mg/ml, 0.1 mg/ml, 0.2 mg/ml, 0.4 mg/ml) in 96 well plate for 24 h. […] In all cultures standard MTT assay quantified viable cells after treating with DMCHSA/free DMC. Briefly, commercial MTT (0.5 mg/ml) reagent was dissolved in medium. This solution was filtered through a 0.22 µm filter and stored at 2 - 8° C. After removal of 100 µl medium, MTT dye solution was added and the plates were incubated at 37° C. for 4 h in a humidified 5% CO2 incubator, followed by 100 µl of DMSO added to each well, and mixed thoroughly to dissolve the dye crystals.
The absorbance was measured using an ELISA plate reader at 570 nm. High optical density readings corresponded to a high intensity of dye colour. The fractional absorbance was calculated by the formula: % Cell survival/PR = Mean absorbance in test × 100 Mean absorbance in control

For data set [3] the following is noted: cited from earlier work.
For data set [4] the following is noted: cited from earlier work. This is another data set of the same source.

Molecules are shown by their SMILES. Converted amounts (≈) assume the structure as drawn. Like-named read-outs stand apart in the source and are kept apart here.

What is called solubility is the concentration that dissolves in the medium under given conditions. Low readings indicate little dissolved substance, high ones much dissolved substance. In “solubility”, `COc1cc(/C=C/C(=O)CC(=O)/C=C/c2ccc(O)c(OC)c2)ccc1O` [DMC, (1E,6E)-1,7-bis(4-hydroxy-3-methoxyphenyl)hepta-1,6-dienne-3,5-dione] displayed a solubility of 20 µM (≈ 7.37 µg/mL). In data set [1], the UV-Vis spectral stability entry is on record as “degrading free curcumin in 2h”. In addition, the “cytotoxicity on fibroblasts, DMCHSA compared with free DMC” value in data set [2] is listed as “less cytotoxic”. Also, in data set [3], the “solubility in acetone, DMSO and ethyl ether” value is listed as “very soluble”; the “solubility in ethyl alcohol, glacial acetic acid and propylene glycol” value is listed as “soluble”; the “solubility in water, petroleum ether and benzene” value is “poorly soluble”. Also, the “half-life of DMC” value in data set [4] (in the presence of protein) was 1 to 2 h. Moreover, in data set [4] (physiological pH, without protein), the “half-life of DMC” value is recorded as “a few minutes”.
